Experiments:
IRAK1 = IRAK1 (Homo sapiens, UniProt P51617); test: Adapta Universal Kinase Assay (ThermoFisher) against IRAK1; assay type: biochemical; conditions: Histone H3 (1-20) peptide substrate, 60 minutes at room temperature
Protocol: To measure the IC50 values of the compounds herein against IRAK1, the Adapta Universal Kinase Assay (ThermoFisher) was used. Briefly, 100 nL of different concentrations of the compounds in 100% DMSO were added to each well of a 384-well plate (Corning Cat. #4512). 2.4 μL of 30 mM HEPES, 2.5 μL of 4× ATP solution (in water), and 5 μL of 2× IRAK1/Histone H3 (1-20) peptide mixture (prepared in 50 mM HEPES pH 7.5, 0.01% BRIJ-35, 10 mM MgCl2, 1 mM EGTA) were added to each well. The plate was shaken for 30 seconds and centrifuged for 1 minute at 1000×g. The plate was then incubated at room temperature for 60 minutes. 5 μL of Detection Mix was added to each well. The plate was shaken for 30 seconds and centrifuged for 1 minute at 1000×g. The plate was then incubated at room temperature for 60 minutes. The plate was subsequently read on a fluorescence plate reader, and the emissions ratio was calculated to determine the ratio of ATP to ADP. Emissions Ratio=AF647 Emission (665 nm)/Europium Emission (615 nm).

IRAK4 = biological target: T1, IRAK4 (Homo sapiens, UniProt Q9NWZ3); test: Z'-LYTE assay (ThermoFisher) against IRAK4; assay type: biochemical; conditions: Ser/Thr 07 substrate, 60 minutes at room temperature
T1 sequence (Q9NWZ3 1-460): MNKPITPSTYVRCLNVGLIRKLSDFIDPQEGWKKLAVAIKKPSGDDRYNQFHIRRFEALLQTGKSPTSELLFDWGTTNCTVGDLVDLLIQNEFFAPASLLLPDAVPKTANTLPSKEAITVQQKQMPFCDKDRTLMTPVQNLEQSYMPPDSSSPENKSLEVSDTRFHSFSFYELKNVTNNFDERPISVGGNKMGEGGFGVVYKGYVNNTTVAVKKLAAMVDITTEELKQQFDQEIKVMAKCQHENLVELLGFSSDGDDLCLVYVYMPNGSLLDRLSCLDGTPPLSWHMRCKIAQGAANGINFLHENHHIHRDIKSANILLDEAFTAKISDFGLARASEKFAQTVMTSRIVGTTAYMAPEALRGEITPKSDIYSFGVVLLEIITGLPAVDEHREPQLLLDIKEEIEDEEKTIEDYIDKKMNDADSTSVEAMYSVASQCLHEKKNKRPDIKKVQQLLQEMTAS
Protocol: To measure the IC50 values of compounds herein against IRAK4, a Z′-LYTE assay (ThermoFisher) was used. Briefly, 2.5 μL of different concentrations of the compounds in 1% DMSO were added to 2.4 μL kinase buffer (50 mM HEPES pH 7.5, 0.01% BRIJ-35, 10 mM MgCl2, 1 mM EGTA) in each well of a 384-well plate (Corning Cat. #3676). 5 μL of 2× IRAK4/Ser/Thr 07 mixture (prepared in 50 mM HEPES pH 7.5, 0.01% BRIJ-35, 10 mM MnCl2, 2 mM DTT, and 0.02% NaN3) and 2.5 μL of 4× ATP solution (4× ATP, 50 mM HEPES, pH 7.5, 0.01% BRIJ-35, 10 mM MgCl2, 1 mM EGTA) were added to each well. The plate was shaken for 30 seconds, and then incubated at room temperature for 60 minutes. 5 μL of a 1:100000 dilution of Development Reagent A was added to each well. The plate was shaken for 30 seconds and incubated for 60 minutes at room temperature. The plate was subsequently read on a fluorescence plate reader, and the emissions ratio was calculated to determine the ratio of Ser/Thr 07 phosphorylated by the reaction. Emissions Ratio=Coumarin Emission (443 nm)/Flourescein Emission (520 nm).

Sequence of IRAK1 (P51617 whole entry): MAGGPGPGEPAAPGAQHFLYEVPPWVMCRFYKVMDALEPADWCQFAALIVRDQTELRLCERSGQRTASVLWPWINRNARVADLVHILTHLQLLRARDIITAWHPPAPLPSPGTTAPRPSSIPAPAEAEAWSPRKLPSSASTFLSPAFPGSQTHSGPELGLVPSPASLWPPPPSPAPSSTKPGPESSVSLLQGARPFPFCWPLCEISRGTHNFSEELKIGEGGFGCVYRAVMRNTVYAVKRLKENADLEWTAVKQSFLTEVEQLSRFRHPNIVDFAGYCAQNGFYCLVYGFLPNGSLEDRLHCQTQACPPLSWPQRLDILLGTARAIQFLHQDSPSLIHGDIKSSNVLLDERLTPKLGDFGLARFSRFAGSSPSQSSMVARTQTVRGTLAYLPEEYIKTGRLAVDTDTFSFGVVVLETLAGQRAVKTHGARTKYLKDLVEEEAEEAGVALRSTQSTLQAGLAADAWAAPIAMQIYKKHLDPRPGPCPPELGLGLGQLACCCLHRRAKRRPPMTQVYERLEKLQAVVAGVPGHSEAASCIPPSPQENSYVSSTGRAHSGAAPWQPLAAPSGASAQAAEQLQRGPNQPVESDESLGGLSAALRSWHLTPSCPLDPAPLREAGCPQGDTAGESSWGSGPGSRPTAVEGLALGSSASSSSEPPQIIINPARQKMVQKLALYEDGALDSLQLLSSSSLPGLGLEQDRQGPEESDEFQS

Row | SMILES | IC50 (IRAK1) | IC50 (IRAK4)
1 | C=CC(=O)N1CC(c2nc(-c3ccc(NC(=O)c4cccc(-c5[nH]ncc5Cl)n4)c(F)c3)no2)CC(F)(F)C1 (stereo not drawn) [Compound 092, N-(4-(5-(1-acryloyl-5,5-difluoropiperidin-3-yl)-1,2,4-oxadiazol-3-yl)-2-fluorophenyl)-6-(4-chloro-1H-pyrazol-5-yl)picolinamide] | 9.93 nM | > 10000 nM
2 | C=CC(=O)N1CC(c2nc(-c3ccc(NC(=O)c4cccc(-c5[nH]ncc5C)n4)c(F)c3)no2)CC(F)(F)C1 (stereo not drawn) [Compound 093, N-(4-(5-(1-acryloyl-5,5-difluoropiperidin-3-yl)-1,2,4-oxadiazol-3-yl)-2-fluorophenyl)-6-(4-methyl-1H-pyrazol-5-yl)picolinamide] | 8.3 nM | > 10000 nM
3 | C=CC(=O)N[C@@H]1CNC[C@H](c2nc(-c3ccc(NC(=O)c4cccc(-c5ccn[nH]5)n4)c(F)c3)no2)C1 [Compound 098, N-(4-(5-((3R,5S)-5-acrylamidopiperidin-3-yl)-1,2,4-oxadiazol-3-yl)-2-fluorophenyl)-6-(1H-pyrazol-5-yl)picolinamide] | 45.9 nM | > 10000 nM
